Measurements as given in patent US20230014352A1, “INHALED STATINS AS BRONCHODILATORS TO IMPROVE LUNG FUNCTION IN RESPIRATORY DISEASES” (priority 2019, published 2023).

Key:
ASM cells = assay: Simulated deep breath (stretch-unstretch), cell mapping rheometry and CFS; type: cell-based, human; conditions: 1 μM, 24 hrs; for force recovery after single stretch-unstretch maneuver (stretch-induced ASM force relaxation): 10% magnitude, 4-sec stretch, recovery over 180 seconds, FIG. 12B
Description: Well-defined biaxial stretch (4 sec duration, 10% magnitude) was imposed using the method of cell mapping rheometry. The strain energy from each ASM force map was computed as a metric of average cellular contraction, and reported as fold changes to the pre-stretch baseline value.
Normal ASM was treated with pitavastatin (1 μM, 24 hrs, n=7), isoproterenol (10 μM, 30 min, n=6) or vehicle (n=7), and examined by CFS as described above. […] Shown are contraction values normalized to the untreated control group. […] The contraction force gradually recovered over 180 seconds. […] All data are reported as mean and standard error of the mean (SEM).

ROCK-2 = assay: Total ROCK-2 expression, western blot; type: cell-based, human; conditions: 1 μM, 24 hrs, FIG. 15C
Description: Non-asthmatic primary human ASM cells were treated with either vehicle or pitavastatin (1 μM) for 24 hours. Cells were then immuno-stained for F-actin expression. […] Cell lysates were analyzed by western blot for total ROCK-1, total ROCK-2, total MLC-2, and phosphorylated MLC-2. As shown in FIGS. 15C and 15D, pitavastatin reduced the total expression of ROCK-1, ROCK-2, and MLC-2 (total and phosphorylated).

In the case of `O=C(O)C[C@H](O)C[C@H](O)/C=C/c1c(C2CC2)nc2ccccc2c1-c1ccc(F)cc1` [pitavastatin], the “basal ASM contraction compared to untreated controls” value (ASM cells; FIG. 12A) is reported as “significantly inhibited basal ASM contraction”, the “force recovery after single stretch-unstretch maneuver (stretch-induced ASM force relaxation)” value (ASM cells) is reported as “significantly inhibited” and the “force recovery after single stretch-unstretch maneuver (stretch-induced ASM force relaxation)” value (ASM cells; listed as Pitavastatin) is reported as “augmented stretch-induced ASM force relaxation”. The “total (basal) expression of ROCK-2” value (ROCK-2) was “reduced”.
